{"source": "paper PMC6642116", "about": "“Structural and functional analyses of hepatitis B virus X protein BH3-like domain and Bcl-xL interaction” (Nature Communications, 2019)", "key": {"Bcl-xL": {"target": "T1, Bcl-xL (Homo sapiens, UniProt Q07817, DEL27-82)", "T1 construct": "6xHis-SUMO (N, cleaved yes); made in house; host or cells: Escherichia coli BL21(DE3)", "T1 sequence (Q07817 with tags, fused parts or gaps DEL27-82 limits assumed)": "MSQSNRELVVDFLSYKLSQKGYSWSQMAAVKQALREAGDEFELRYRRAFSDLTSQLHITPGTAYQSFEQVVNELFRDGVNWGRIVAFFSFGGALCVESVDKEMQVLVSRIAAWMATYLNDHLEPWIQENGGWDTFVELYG", "test": "Isothermal titration calorimetry of peptides with Bcl-xL", "assay_type": "binding", "details": "ITC, 25 °C; Bcl-xL 10 μM in 25 mM Tris-HCl (pH 8.0); peptide 800 μM", "source_text": "The codon-optimized DNAs encoding Bcl-xLΔTM (the flexible loop, residues 27–82, and the transmembrane domain, residues, 197–233, are deleted, total […], named as Bcl-xL thereafter) was ordered from Genewiz (www.genewiz.com). The recombinant Bcl-xL with N-terminal SUMO-fused 6× His tag was generated by the insertion of the PCR products into pETSUMO vector (Invitrogen; www.thermofisher.com) and verified by sequencing. Recombinant proteins were expressed in Escherichia coli (BL21/DE3) strain overnight at 20 °C and proteins were induced by 0.4 mM isopropyl β-D-thiogalactoside. Cells were harvested by centrifugation and the pellets were re-suspended and passed through a cell disruptor (www.avestin.com) three times. After ultracentrifugation at 40,000 rpm for 1 h, the supernatant for His-tagged recombinant proteins were purified through Ni^2+ affinity column, cleaved by Ulp-1, followed by HiLoad Superdex S-75 26/60 column (GE Healthcare). The purified proteins were dialyzed against stabilization buffer containing 20 mM Tris-HCl (pH 7.0) and 100 mM NaCl and concentrated to 10–15 mg/ml in a Centriprep-30 (Amicon) for subsequent crystallization and biochemical analysis.\nMicrocalorimetry was used for all measurements. Bcl-xL protein was prepared at a final concentration of 10 μM in a buffer containing 25 mM Tris-HCl (pH 8.0). The ABT-263 was dissolved in the same buffer to a final concentration of 500 μM, while the peptides were dissolved to a final concentration of 800 μM. All experiments were carried out at 25 °C. Data were analyzed using the software Origin (OriginLab)."}, "[1]": {"test_system": "endogenous Bcl-xL protein in HepG2 cell lysate", "test": "Co-precipitation of endogenous Bcl-xL from HepG2 cell lysate by biotinylated HBx peptides", "assay_type": "binding, human", "details": "biotinylated peptide, streptavidin beads, immunoblot", "description": "Fig. 2 HBx binds endogenous Bcl-xL through the BH3-like domain. a HBx-aa113–135 interacts with Bcl-xL in HepG2 cell lysate. Co-precipitation experiments were performed in the HepG2 cell lysate using biotinylated HBx-aa113–135 peptides (wild type (WT)) and corresponding mutant peptides (W120A/L123A), respectively. The results were analyzed by immunoblotting (IB) using anti-Bcl-xL antibody. β-Tubulin was measured and analyzed as an input control. b Full-length HBx interacts with Bcl-xL in HepG2 cells. Co-immunoprecipitation (co-IP) experiments were performed in HepG2 cells transfected with pTT22m-HBx-WT or pTT22m-HBx(W120A/L123A).\nHepG2 cells were lysed in lysis buffer [100 mM NaCl, 0.5 mM MgCl2, 0.15 mM CaCl2, 1% (v/v) Nonidet P-40, 10 mM Tris-HCl, pH 8.0] containing protease inhibitor mixture tablets (Roche). Cell lysate was centrifuged at 12,000 × g for 10 min at 4 °C to removed debris and precleared with magnetic beads conjugated with streptavidin (Dynabeads® M-280 Streptavidin, Invitrogen). Subsequently, the precleared supernatant was incubated with C-terminal biotinylated peptides for 1 h with gentle shaking at 4 °C. […] The beads were washed five times with the lysis buffer and the bound proteins were resolved on a 13.5% sodium dodecyl sulfate-polyacrylamide gel and detected by anti-Bcl-xL antibody (Cell Signaling Technology)."}, "[2]": {"test_system": "HBV replication from pHBV1.3-Xnull replicon in HepG2 cells", "test": "HBV production rescue assay, PEP-1 delivered peptides", "assay_type": "cell-based", "details": "HepG2 + pHBV1.3-Xnull; for HBcAg in cells / HBeAg in culture medium / HBsAg in culture medium / Secreted HBV DNA: peptide/PEP-1, 48 h; for HBV viral protein production and HBV DNA replication (in words): peptide/PEP-1 nanoparticles, 48 h", "source_text": "Fig. 3 The HBx-BH3-like domain is critical for HBV production in HepG2 cells. a–e C-terminal biotinylated HBx-aa113–135 peptides (both wild-type (WT) and the W120A/L123A double mutant) were delivered into HepG2 cells transfected with pHBV1.3-Xnull using PEP-1 nanoparticles (Methods) and analyzed by streptavidin-FITC (fluorescein isothiocyanate) for transfection efficiency (a). Scale bar is 50 μm. An unrelated 23-aa peptide was used as a control (Control). The intracellular expression levels of HBV core antigen (HBcAg (b) and the levels of HBV e-antigen (HBeAg) (c), HBV S-antigen (HBsAg) (d), and HBV DNA (e) in the culture medium collected from HepG2 cells were measured (Methods). The results are shown as fold change to the WT HBx-aa113–135 peptide (WT). f–i) HepG2 cells were co-transfected with pHBV1.3-Xnull and pTT22m-HBx-WT (WT), pHBV1.3-Xnull and pTT22m-HBx(W120A/L123A), or pHBV1.3-Xnull and the pTT22m vector control (Control). Intracellular expression levels of HBcAg (f) and the levels of HBeAg (g), HBsAg (h), and HBV DNA (i) in the culture medium from HepG2 cells were measured similarly. The results are shown as fold change to the combination of pHBV1.3-Xnull and pTT22m-HBx-WT (WT). Data shown represent mean ± SD. Significance is indicated on the top. **P < 0.01, ***P < 0.001, ****P < 0.0001; two-tailed unpaired t tests (n = 3 biologically independent samples). Source data are provided as a Source Data file\nHepG2 cells were grown in Dulbecco’s modified Eagle’s medium (DMEM) with 10% Gibco fetal bovine serum. C-terminal biotinylated-labeled HBx peptides were transfected into HepG2 cells by pep-1[16], a peptide carrier for the delivery of biologically active proteins into mammalian cells. HBx peptides and pep-1 were firstly dissolved in DMEM to 1 mg/ml, then adjusted to 500 µl DMEM to a final concentration of 100 µg/ml, and incubated at 37 °C for 30 min in the tube. The incubated peptide mixture was added into pre-seeded HepG2 cells in a 24-well plate and incubated for another 30 min, and then washed five times by phosphate-buffered saline (PBS) to remove the free peptides. The transfected C-terminal biotinylated HBx peptides were detected by using streptavidin-FITC (fluorescein isothiocyanate) equipment (Thermo Fisher Scientific) following the standard immunostaining methods.\nTransfection of plasmids into HepG2 cells was carried out using X-tremeGENE HP DNA Transfection Reagent (Roche), following the manufacturer’s protocol. A transfection efficiency of 20–30% could be achieved. Cells were pre-seeded 24 h before transfections. pHBV1.3-HBx-null plasmid was transfected into HepG2 cells for 6 h, then HBx-aa113–135, HBx-aa113–135-(W120A, L123A), or control peptide was transfected by pep-1 carrier and incubated for additional 48 h without the removal of peptides. The culture media of the HepG2 cells were harvest for analysis.\nThe levels of HBsAg, HBeAg, and HBcAg expression were measured by chemiluminescence, using Commercial Assay Kit (Wantai, Beijing, China). Northern blot analysis of HBV RNA, Southern blot analysis of HBV DNA, and real-time PCR quantification of HBV DNA are described in the Supplementary Methods."}, "DDB1": {"test_system": "DDB1", "assay_type": "binding", "details": "biotin-conjugated peptides, HepG2 lysate; peer review file, removed from final paper", "description": "(§1) affect the level of the Smc6 proteins in HepG2 cell. a, Coprecipitation experiments were performed with HepG2 cell lysate that was incubated with biotinylated HBx-aa113-135 peptides (WT) and mutant peptides with the W120A/L123A mutations, respectively. The pulldown proteins were analyzed by immunoblotting (IB) using an anti-DDB1 antibody (Abcam, ab109027). b-c, HBx-aa113-135 peptides (wild-type and the W120A/L123A double mutant peptides) were delivered into HepG2 cells using PEP-1 nanoparticles, respectively. […]"}, "SMC6": {"test_system": "SMC6", "assay_type": "cell-based", "details": "HepG2, 48 h, PEP-1 delivery; peer review file, removed from final paper", "description": "as §1\nSmc6 protein expression. Nuclei were stained with DAPI (Invitrogen, D1306). The fluorescence was detected by Opera Phenix High Content Screening System (PerkinElmer) and the mean green fluorescence intensity of cells was quantified by Opera Phenix High Content Screening System. The data shown are mean ± SD. Significant differences between groups are indicated on the top. ns, no significant difference; two-tailed unpaired t-tests."}}}
{"substance": "KDCVFKDAEEAGEEIRLKVFVLG-K-biotin [HBx-aa113–135(W120A/L123A)]", "values": [{"measurement": "dissociation constant", "setting": "Bcl-xL", "value": "not detectable"}, {"measurement": "co-precipitation of Bcl-xL", "setting": "[1]", "value": "much less Bcl-xL was co-precipitated"}, {"measurement": "HBcAg in cells", "setting": "[2]; replicate 1", "value": "0.546 fold-change to WT"}, {"measurement": "HBeAg in culture medium", "setting": "[2]; replicate 1", "value": "0.448 fold-change to WT"}, {"measurement": "HBsAg in culture medium", "setting": "[2]; replicate 1", "value": "0.379 fold-change to WT"}, {"measurement": "Secreted HBV DNA", "setting": "[2]; replicate 1", "value": 1584000, "unit": "Copies/mL"}, {"measurement": "HBcAg in cells", "setting": "[2]; replicate 2", "value": "0.465 fold-change to WT"}, {"measurement": "HBeAg in culture medium", "setting": "[2]; replicate 2", "value": "0.393 fold-change to WT"}, {"measurement": "HBsAg in culture medium", "setting": "[2]; replicate 2", "value": "0.356 fold-change to WT"}, {"measurement": "Secreted HBV DNA", "setting": "[2]; replicate 2", "value": 1498000, "unit": "Copies/mL"}, {"measurement": "HBcAg in cells", "setting": "[2]; replicate 3", "value": "0.491 fold-change to WT"}, {"measurement": "HBeAg in culture medium", "setting": "[2]; replicate 3", "value": "0.405 fold-change to WT"}, {"measurement": "HBsAg in culture medium", "setting": "[2]; replicate 3", "value": "0.352 fold-change to WT"}, {"measurement": "Secreted HBV DNA", "setting": "[2]; replicate 3", "value": 1278000, "unit": "Copies/mL"}, {"measurement": "HBV viral protein production and HBV DNA replication (in words)", "setting": "[2]", "value": "failed to do so"}, {"measurement": "pull-down of DDB1 by peptide", "setting": "DDB1", "value": "could not be pulled down"}, {"measurement": "level of SMC6 protein, compared with control peptide", "setting": "SMC6", "value": "comparable"}]}
{"substance": "KDCVFKDWEELGEEIRLKVFVLG-K-biotin [HBx-aa113–135-biotin, C-terminal biotinylated wild-type HBx-aa113–135; delivered with PEP-1 nanoparticles in cells]", "values": [{"measurement": "co-precipitation of Bcl-xL", "setting": "[1]", "value": "Bcl-xL was co-precipitated"}, {"measurement": "HBcAg in cells", "setting": "[2]; replicate 1", "value": "1.057 fold-change to WT"}, {"measurement": "HBeAg in culture medium", "setting": "[2]; replicate 1", "value": "0.919 fold-change to WT"}, {"measurement": "HBsAg in culture medium", "setting": "[2]; replicate 1", "value": "0.971 fold-change to WT"}, {"measurement": "Secreted HBV DNA", "setting": "[2]; replicate 1", "value": 3830000, "unit": "Copies/mL"}, {"measurement": "HBcAg in cells", "setting": "[2]; replicate 2", "value": "0.952 fold-change to WT"}, {"measurement": "HBeAg in culture medium", "setting": "[2]; replicate 2", "value": "1.090 fold-change to WT"}, {"measurement": "HBsAg in culture medium", "setting": "[2]; replicate 2", "value": "1.038 fold-change to WT"}, {"measurement": "Secreted HBV DNA", "setting": "[2]; replicate 2", "value": 2973000, "unit": "Copies/mL"}, {"measurement": "HBcAg in cells", "setting": "[2]; replicate 3", "value": "0.991 fold-change to WT"}, {"measurement": "HBeAg in culture medium", "setting": "[2]; replicate 3", "value": "0.990 fold-change to WT"}, {"measurement": "HBsAg in culture medium", "setting": "[2]; replicate 3", "value": "0.991 fold-change to WT"}, {"measurement": "Secreted HBV DNA", "setting": "[2]; replicate 3", "value": 4056000, "unit": "Copies/mL"}, {"measurement": "HBV viral protein production and HBV DNA replication (in words)", "setting": "[2]", "value": "significantly increased both HBV viral protein production and HBV DNA replication"}, {"measurement": "pull-down of DDB1 by peptide", "setting": "DDB1", "value": "could not be pulled down"}, {"measurement": "level of SMC6 protein, compared with control peptide", "setting": "SMC6", "value": "comparable"}]}
